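Assay format: 96-well plates, 48-hour exposure. GI50 marks 50% less growth.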 Activity calls are given as the source filed them. Cut-off read from the data, not from the text of the source: active = GI50 up to about 1.1 µM and inactive = higher.
Legend:
Test in all cases: NCI-60 cell line screen, 48 h
786-0 = test system: 786-0
A549 = test system: A549
CCRF-CEM = test system: CCRF-CEM
DU-145 = test system: DU-145
HCT-15 = test system: HCT-15
HL-60 = test system: HL-60
K562 = test system: K562
LOX IMVI = test system: LOX IMVI
M14 = test system: M14
MDA-MB-435 = test system: MDA-MB-435
NCI-H460 = test system: NCI-H460
OVCAR-8 = test system: OVCAR-8
RXF 393 = test system: RXF 393
SF-268 = test system: SF-268
SF-295 = test system: SF-295
SK-MEL-5 = test system: SK-MEL-5
SK-OV-3 = test system: SK-OV-3
TK-10 = test system: TK-10
UACC-257 = test system: UACC-257
UACC-62 = test system: UACC-62

SMILES | GI50 (786-0) | GI50 (A549) | GI50 (CCRF-CEM) | GI50 (DU-145) | GI50 (HCT-15) [µM] | GI50 (HL-60) | GI50 (K562) | GI50 (LOX IMVI) | GI50 (M14) | GI50 (MDA-MB-435) | GI50 (NCI-H460) | GI50 (OVCAR-8) | GI50 (RXF 393) | GI50 (SF-268) | GI50 (SF-295) | GI50 (SK-MEL-5) | GI50 (SK-OV-3) | GI50 (TK-10) | GI50 (UACC-257) | GI50 (UACC-62)
Oc1nc2cc3nc(O)c(O)nc3cc2nc1O | > 100 µM (inactive) | > 100 µM (inactive) | > 100 µM (inactive) | > 100 µM (inactive) | > 100 | > 100 µM (inactive) | > 100 µM (inactive) | > 100 µM (inactive) | > 100 µM (inactive) | > 100 µM (inactive) | > 100 µM (inactive) | > 100 µM (inactive) | > 100 µM (inactive) | > 100 µM (inactive) | > 100 µM (inactive) | > 100 µM (inactive) | > 100 µM (inactive) | > 100 µM (inactive) | > 100 µM (inactive) | > 100 µM (inactive)
COc1ccc(C(=O)CC(c2ccc(OC)c(OC)c2)c2c(O)oc3ccccc3c2=O)cc1OC (stereo not drawn) | > 100 µM (inactive) | > 100 µM (inactive) | > 100 µM (inactive) | > 100 µM (inactive) | > 100 | > 100 µM (inactive) | > 100 µM (inactive) | > 100 µM (inactive) | > 100 µM (inactive) | > 100 µM (inactive) | > 100 µM (inactive) | > 100 µM (inactive) | > 100 µM (inactive) | > 100 µM (inactive) | > 100 µM (inactive) | > 100 µM (inactive) | > 100 µM (inactive) | > 100 µM (inactive) | > 100 µM (inactive) | > 100 µM (inactive)
CC(=O)OCC12CN(C#N)C3C4COC(CC41)C1(C(=O)N(C)c4ccccc41)C32 (stereo not drawn) | 28.3 µM (inactive) | 28.4 µM (inactive) | 11.8 µM (inactive) | 15.4 µM (inactive) | 17.1 | 11.2 µM (inactive) | 14.8 µM (inactive) | 20.6 µM (inactive) | 20.2 µM (inactive) | 26.8 µM (inactive) | 31.3 µM (inactive) | 19.5 µM (inactive) | 12.1 µM (inactive) | 29.1 µM (inactive) | 49.1 µM (inactive) | 26.7 µM (inactive) | 34.4 µM (inactive) | 20.4 µM (inactive) | 16.9 µM (inactive) | 22.6 µM (inactive)
N[C@@H](Cc1ccc2oc3cc(=O)c4ccccc4c-3nc2c1)C(=O)O | > 100 µM (inactive) | 40.2 µM (inactive) | 38.5 µM (inactive) | 19.5 µM (inactive) | 57.4 | > 100 µM (inactive) | > 100 µM (inactive) | 37.8 µM (inactive) | 15.3 µM (inactive) | 17 µM (inactive) | 31.1 µM (inactive) | 49 µM (inactive) | > 100 µM (inactive) | > 100 µM (inactive) | 30.4 µM (inactive) | 11.7 µM (inactive) | > 100 µM (inactive) | > 100 µM (inactive) | 18.1 µM (inactive) | 27.4 µM (inactive)
C=C(C)C1CC2(C)C(C)CC(O)CC2C(OC(=O)C=C(C)C)C1O (stereo not drawn) | > 100 µM (inactive) | 29.4 µM (inactive) | 30.8 µM (inactive) | 60.5 µM (inactive) | 27.3 | 23 µM (inactive) | 32.8 µM (inactive) | 55 µM (inactive) | 33.7 µM (inactive) | 38.1 µM (inactive) | 22.8 µM (inactive) | 40.6 µM (inactive) | 26.9 µM (inactive) | 23.7 µM (inactive) | 23 µM (inactive) | 19.2 µM (inactive) | 58.6 µM (inactive) | 49.2 µM (inactive) | 53.1 µM (inactive) | 71.9 µM (inactive)
Fc1ccc(C2(CCCN3CCc4[nH]c5cc(F)ccc5c4C3)OCCO2)cc1 | 13.9 µM (inactive) | 14.7 µM (inactive) | 11.8 µM (inactive) | 14.7 µM (inactive) | 16.4 | 10.5 µM (inactive) | 4.18 µM (inactive) | 12.6 µM (inactive) | 2.53 µM (inactive) | 13.5 µM (inactive) | 10.4 µM (inactive) | 17.7 µM (inactive) | 13.5 µM (inactive) | 15.3 µM (inactive) | 13.9 µM (inactive) | 10.9 µM (inactive) | 13.8 µM (inactive) | 14.8 µM (inactive) | 4.71 µM (inactive) | 13.7 µM (inactive)
CC1=CC[C@](C)(O)[C@@]2(C)CC[C@H]3C(=C(C)C)C(=O)C[C@]3(C)C[C@H]12 | 15.7 µM (inactive) | 46.8 µM (inactive) | 10.8 µM (inactive) | > 50 µM (inactive) | 12.3 | 6.55 µM (inactive) | 9.2 µM (inactive) | 7.93 µM (inactive) | 24.8 µM (inactive) | 18.7 µM (inactive) | – | 29.2 µM (inactive) | 30 µM (inactive) | > 50 µM (inactive) | > 50 µM (inactive) | 27.8 µM (inactive) | > 50 µM (inactive) | > 50 µM (inactive) | > 50 µM (inactive) | 11.9 µM (inactive)
C/C(=N\NC(=S)N1CC2CCC(CC2)C1)c1nccs1 | 0.25 µM (active) | 0.19 µM (active) | < 0.01 µM (active) | 0.255 µM (active) | 0.0516 | < 0.01 µM (active) | < 0.01 µM (active) | 0.271 µM (active) | 0.249 µM (active) | 0.413 µM (active) | 0.0483 µM (active) | 0.114 µM (active) | 0.336 µM (active) | 0.294 µM (active) | 0.296 µM (active) | 0.153 µM (active) | 0.809 µM (active) | 0.975 µM (active) | 0.113 µM (active) | 0.132 µM (active)
O=C(O)C(=O)Cc1ccc2c(c1)OCO2 | > 100 µM (inactive) | > 100 µM (inactive) | 18.9 µM (inactive) | > 100 µM (inactive) | > 100 | > 100 µM (inactive) | > 100 µM (inactive) | > 100 µM (inactive) | > 100 µM (inactive) | > 100 µM (inactive) | > 100 µM (inactive) | > 100 µM (inactive) | > 100 µM (inactive) | – | > 100 µM (inactive) | > 100 µM (inactive) | > 100 µM (inactive) | > 100 µM (inactive) | > 100 µM (inactive) | > 100 µM (inactive)
Cc1cccc2c1CC(C1OC(=O)c3ccccc31)C2=O (stereo not drawn) | > 100 µM (inactive) | > 100 µM (inactive) | > 100 µM (inactive) | > 100 µM (inactive) | > 100 | > 100 µM (inactive) | > 100 µM (inactive) | > 100 µM (inactive) | > 100 µM (inactive) | > 100 µM (inactive) | > 100 µM (inactive) | > 100 µM (inactive) | > 100 µM (inactive) | > 100 µM (inactive) | > 100 µM (inactive) | > 100 µM (inactive) | > 100 µM (inactive) | > 100 µM (inactive) | > 100 µM (inactive) | > 100 µM (inactive)
C#CC(O)/C=C/C(O)CCCC(O)CC#CC(O)C#CC(O)CCCC(O)/C=C/CCCC(=O)CCCCCCCCCCCCCCCC(O)C(O)C#CC(=O)O (stereo not drawn) | > 50 µM (inactive) | > 50 µM (inactive) | 14.1 µM (inactive) | > 50 µM (inactive) | > 50 | 13.2 µM (inactive) | > 50 µM (inactive) | 10.3 µM (inactive) | > 50 µM (inactive) | > 50 µM (inactive) | > 50 µM (inactive) | > 50 µM (inactive) | > 50 µM (inactive) | > 50 µM (inactive) | > 50 µM (inactive) | > 50 µM (inactive) | > 50 µM (inactive) | > 50 µM (inactive) | > 50 µM (inactive) | > 50 µM (inactive)
O=c1c2c(sc3ccccc13)NCN(CCc1ccccc1)C2 | 29.7 µM (inactive) | 49 µM (inactive) | 43.9 µM (inactive) | 70.5 µM (inactive) | – | > 100 µM (inactive) | 19.7 µM (inactive) | 33.5 µM (inactive) | 27 µM (inactive) | 35.1 µM (inactive) | 32.7 µM (inactive) | 28.7 µM (inactive) | 36.3 µM (inactive) | – | 20.7 µM (inactive) | 14.8 µM (inactive) | 66.5 µM (inactive) | – | 33.5 µM (inactive) | 34.2 µM (inactive)
C1=C\CCCCN2C[C@H]3CCCC/C=C\CCCCN4CC[C@@H]([C@H](CCCCCC/1)C4)[C@H](C3)C2 | 1.75 µM (inactive) | 2.09 µM (inactive) | 2.58 µM (inactive) | 5.48 µM (inactive) | 1.77 | 2.31 µM (inactive) | 1.47 µM (inactive) | 1.74 µM (inactive) | – | 1.86 µM (inactive) | 1.76 µM (inactive) | 2.84 µM (inactive) | 1.52 µM (inactive) | 2.65 µM (inactive) | 1.71 µM (inactive) | 1.61 µM (inactive) | 8.09 µM (inactive) | 2.28 µM (inactive) | 1.76 µM (inactive) | 1.87 µM (inactive)
NC(=O)NCCCC(NC(=O)OCCCCCn1ccc(=O)[nH]c1=O)C(=O)O (stereo not drawn) | > 100 µM (inactive) | > 100 µM (inactive) | > 100 µM (inactive) | > 100 µM (inactive) | > 100 | > 100 µM (inactive) | > 100 µM (inactive) | > 100 µM (inactive) | > 100 µM (inactive) | > 100 µM (inactive) | > 100 µM (inactive) | > 100 µM (inactive) | > 100 µM (inactive) | > 100 µM (inactive) | > 100 µM (inactive) | – | > 100 µM (inactive) | > 100 µM (inactive) | > 100 µM (inactive) | > 100 µM (inactive)

Reference: ChEMBL document CHEMBL1201862, “PubChem BioAssay data set” (2004)
